The test system of the assay is P388 leukemia ip, CD2F1 mice, survival T/C. Nature of the assay: NCI In Vivo Anticancer Drug Screen. Data for tumor model P388 Leukemia (intraperitoneal) in CD2F1 (CDF1) mice. To be noted: endpoint: median survival time, higher = longer survival. An outline of the steps:
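Mice carrying the transplanted tumor received test compound or vehicle. Survival was recorded in each group, and the value is the treated-group measurement divided by that of the vehicle-treated control group.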

Where [1] appears, read: dose: 60.0 mg/kg/injection, schedule: Q01DX005 (ip), vehicle: saline with Tween-80.
The mark [2] stands for this setting: dose: 120.0 mg/kg/injection, schedule: Q01DX005 (ip), vehicle: saline with Tween-80.
Where [3] appears, read: dose: 240.0 mg/kg/injection, schedule: Q01DX005 (ip), vehicle: saline with Tween-80.
[4] abbreviates: dose: 50.0 mg/kg/injection, schedule: Q01DX009 (ip), vehicle: suspension in saline.
[5] abbreviates: dose: 100.0 mg/kg/injection, schedule: Q01DX009 (ip), vehicle: suspension in saline.
[6] abbreviates: dose: 200.0 mg/kg/injection, schedule: Q01DX009 (ip), vehicle: suspension in saline.
[7] abbreviates: dose: 50.0 mg/kg/injection, schedule: Q01DX005 (ip), vehicle: saline with Tween-80.
[8] abbreviates: dose: 100.0 mg/kg/injection, schedule: Q01DX005 (ip), vehicle: saline with Tween-80.
[9] abbreviates: dose: 200.0 mg/kg/injection, schedule: Q01DX005 (ip), vehicle: saline with Tween-80.
Where [10] appears, read: dose: 50.0 mg/kg/injection, schedule: Q01DX009 (ip), vehicle: Klucel (hydroxypropylcellulose) (HPC).
Where [11] appears, read: dose: 100.0 mg/kg/injection, schedule: Q01DX009 (ip), vehicle: Klucel (hydroxypropylcellulose) (HPC).
Setting [12] is: dose: 200.0 mg/kg/injection, schedule: Q04DX002 (ip), vehicle: saline with Tween-80.
The mark [13] stands for this setting: dose: 400.0 mg/kg/injection, schedule: Q04DX002 (ip), vehicle: saline with Tween-80.
The mark [14] stands for this setting: dose: 60.0 mg/kg/injection, schedule: Q01DX005 (ip), vehicle: Klucel (hydroxypropylcellulose) (HPC).
Where [15] appears, read: dose: 120.0 mg/kg/injection, schedule: Q01DX005 (ip), vehicle: Klucel (hydroxypropylcellulose) (HPC).
The mark [16] stands for this setting: dose: 240.0 mg/kg/injection, schedule: Q01DX005 (ip), vehicle: Klucel (hydroxypropylcellulose) (HPC).

Several values for one entry are separate records, joined by “and”; a condition that tells them apart may be missing. Identical values can stand only once. Toxic doses and inconclusive results are not listed.

Consider `CCOCCOCCOC(C)Oc1ccc(Cl)cc1C` (centres undefined), for which the T/C is 90 % of control under setting [1], 92 % of control under setting [2] and 98 % of control under setting [3].

For `CCCN(CCC)CC1CN(/N=C/c2ccc([N+](=O)[O-])o2)C(=O)O1` (centres undefined), the T/C by setting is: (dose: 50.0 mg/kg/injection, schedule: Q01DX005 (ip), vehicle: saline) 108 % of control; (dose: 100.0 mg/kg/injection, schedule: Q01DX005 (ip), vehicle: saline) 100 % of control; (dose: 200.0 mg/kg/injection, schedule: Q01DX005 (ip), vehicle: saline) 108 % of control.

Regarding `CCOc1ccc2c(c1)C(C)=CC(C)(C)N2`, the T/C is, setting by setting: (dose: 100.0 mg/kg/injection, schedule: Q04DX003 (ip), vehicle: Klucel (hydroxypropylcellulose) (HPC)) 99 % of control; (dose: 200.0 mg/kg/injection, schedule: Q04DX003 (ip), vehicle: Klucel (hydroxypropylcellulose) (HPC)) 102 % of control; (dose: 400.0 mg/kg/injection, schedule: Q04DX003 (ip), vehicle: Klucel (hydroxypropylcellulose) (HPC)) 102 % of control.

As for `Fc1ccc(CSC(=S)Nc2ccc(F)cc2)cc1`, the T/C reads like this: under setting [4], 108 % of control; under setting [5], 103 % of control; under setting [6], 108 % of control.

Consider `O=[N+]([O-])/C=C/c1cc2c(ccc3ccccc32)[nH]1`, for which the T/C is 91 % of control under setting [7], 93 % of control under setting [8] and 99 % of control under setting [9].

As to `CCCCCCCC(=O)NCCCC(C)Nc1cc(OC)cc2cccnc12` (centres undefined), the T/C is, setting by setting: under setting [1], 106 % of control; under setting [2], 99 % of control.

With `C(=C\c1ccccc1)/CN1CCN(C(c2ccccc2)c2ccccc2)CC1`, the T/C reads like this: under setting [10], 97 % of control; under setting [11], 94 % of control; (dose: 200.0 mg/kg/injection, schedule: Q01DX009 (ip), vehicle: Klucel (hydroxypropylcellulose) (HPC)) 90 % of control.

As for `CCCCCCCCCCCC(=O)NCC(=O)NC1C(C)OC(Nc2ncnc3nc[nH]c23)C(O)C1O` (centres undefined), the T/C reads like this: (dose: 0.25 mg/kg/injection, schedule: Q01DX009 (ip), vehicle: other) 113 % of control; (dose: 0.5 mg/kg/injection, schedule: Q01DX009 (ip), vehicle: other) 109 % of control.

`O=C(O)CN(CC(=O)O)Cc1cc(=O)[nH]c(=O)[nH]1`: the T/C was 91 % of control (dose: 50.0 mg/kg/injection, schedule: Q01DX009 (ip), vehicle: saline); 95 % of control (dose: 100.0 mg/kg/injection, schedule: Q01DX009 (ip), vehicle: saline); 97 % of control (dose: 200.0 mg/kg/injection, schedule: Q01DX009 (ip), vehicle: saline).

In the case of `CCO/C=C1/N=C(c2ccc(OC)c(OC)c2)OC1=O`, the T/C under setting [1] was 110 % of control.

As for `O=Cc1c2cnc(c1O)CSCCCCSC2`, the T/C runs as follows: (dose: 100.0 mg/kg/injection, schedule: Q04DX002 (ip), vehicle: saline with Tween-80) 99 % of control; under setting [12], 96 % of control; under setting [13], 101 % of control.

On to `COC(=O)N1Cc2cc3ccccc3nc2C1C` (centres undefined), for which the T/C by setting is: under setting [14], 101 % of control; under setting [15], 104 % of control; under setting [16], 109 % of control.

Take `Cc1ccnc(NC(=O)Nc2cc(Cl)ccc2Cl)c1`: the T/C was 100 % of control under setting [10] and 87 % of control under setting [11].

Take `CCOC(=O)C(NC(=O)C1(O)C(O)C2(CC)C=CCN3CCC4(c5cc(C6(C(=O)OC)CC7CN(CCc8c6[nH]c6ccccc86)CC(O)(CC)C7)c(OC)cc5N(C)C14)C32)C(C)CC` (centres undefined): the T/C (dose: 1.0 mg/kg/injection, schedule: Q01DX001 (ip), vehicle: saline) was 124 % of control; the T/C (dose: 2.0 mg/kg/injection, schedule: Q01DX001 (ip), vehicle: saline) is 155 % of control; the T/C (dose: 4.0 mg/kg/injection, schedule: Q01DX001 (ip), vehicle: saline) is 181 % of control; the T/C (dose: 8.0 mg/kg/injection, schedule: Q01DX001 (ip), vehicle: saline) was 172 % of control and 203 % of control; the T/C (dose: 16.0 mg/kg/injection, schedule: Q01DX001 (ip), vehicle: saline) is 191 % of control.

Regarding `COc1cc(C2c3cc(O)c(OC)cc3CC(O)(CO)C2CO)ccc1O` (centres undefined), the T/C was 100 % of control (dose: 23.75 mg/kg/injection, schedule: Q01DX005 (ip), vehicle: Klucel (hydroxypropylcellulose) (HPC)); 95 % of control (dose: 47.5 mg/kg/injection, schedule: Q01DX005 (ip), vehicle: Klucel (hydroxypropylcellulose) (HPC)); 86 % of control (dose: 95.0 mg/kg/injection, schedule: Q01DX005 (ip), vehicle: Klucel (hydroxypropylcellulose) (HPC)); 90 % of control (dose: 190.0 mg/kg/injection, schedule: Q01DX005 (ip), vehicle: Klucel (hydroxypropylcellulose) (HPC)).

Take `CC1(C)CC(NCCO)=CC(=S)N1`: the T/C was 103 % of control (dose: 50.0 mg/kg/injection, schedule: Q01DX005 (ip), vehicle: Klucel (hydroxypropylcellulose) (HPC)); 101 % of control (dose: 100.0 mg/kg/injection, schedule: Q01DX005 (ip), vehicle: Klucel (hydroxypropylcellulose) (HPC)); 99 % of control (dose: 200.0 mg/kg/injection, schedule: Q01DX005 (ip), vehicle: Klucel (hydroxypropylcellulose) (HPC)).

`CC1(C(=O)O)CCC2(C(=O)O)CCC3(C)C(=CCC4C5(C)CC(O)C(O)C(C)(CO)C5CCC43C)C2C1` (centres undefined): the T/C was 100 % of control (dose: 6.25 mg/kg/injection, schedule: Q01DX009 (ip), vehicle: saline); 100 % of control (dose: 12.5 mg/kg/injection, schedule: Q01DX009 (ip), vehicle: saline); 96 % of control (dose: 25.0 mg/kg/injection, schedule: Q01DX009 (ip), vehicle: saline).

In the case of `Brc1ccc(N=C2N=C(Nc3ccc(Br)cn3)c3ccccc32)nc1`, the T/C was 100 % of control (dose: 12.5 mg/kg/injection, schedule: Q04DX002 (ip), vehicle: saline with Tween-80); 94 % of control (dose: 25.0 mg/kg/injection, schedule: Q04DX002 (ip), vehicle: saline with Tween-80); 90 % of control (dose: 50.0 mg/kg/injection, schedule: Q04DX002 (ip), vehicle: saline with Tween-80); 91 % of control under setting [12]; 106 % of control under setting [13].

For `CC(=O)c1c(-c2ccc(F)cc2)c(-c2ccc(F)cc2)nn(CCO)c1=O`, the T/C is, setting by setting: under setting [7], 98 % of control; under setting [8], 100 % of control; under setting [9], 98 % of control.

On to `O=C(OCC(Cl)(Cl)Cl)N1C2C=CC(C3OC32)N1C(=O)OCC(Cl)(Cl)Cl` (centres undefined), for which the T/C is 88 % of control under setting [4], 90 % of control under setting [5] and 98 % of control under setting [6].

With `Cc1cc(N=Nc2ccccc2)cc(C)c1N`, the T/C was 90 % of control (dose: 100.0 mg/kg/injection, schedule: Q01DX009 (ip), vehicle: saline with Tween-80); 90 % of control (dose: 200.0 mg/kg/injection, schedule: Q01DX009 (ip), vehicle: saline with Tween-80); 100 % of control (dose: 400.0 mg/kg/injection, schedule: Q01DX009 (ip), vehicle: saline with Tween-80).

As to `O=c1oc2ccccc2c2c1SC(c1ccncc1)C2` (centres undefined), the T/C reads like this: under setting [14], 91 % of control; under setting [15], 88 % of control; under setting [16], 91 % of control.

As to `COc1ccc2nc(C#N)sc2c1`, the T/C is, setting by setting: under setting [1], 86 % of control; under setting [2], 92 % of control; under setting [3], 100 % of control.

As to `[NH-]C(CCC(N)=O)C(=O)O.[NH-]C(CCC(N)=O)C(=O)O.[Ni+2]` (centres undefined), the T/C runs as follows: (dose: 6.25 mg/kg/injection, schedule: Q01DX005 (ip), vehicle: saline) 93 % of control; (dose: 12.5 mg/kg/injection, schedule: Q01DX005 (ip), vehicle: saline) 96 % of control.

Turning to `Cc1cc(=O)n(C)c2ccc(N)cc12`, the T/C is, setting by setting: (dose: 25.0 mg/kg/injection, schedule: Q01DX009 (ip), vehicle: Klucel (hydroxypropylcellulose) (HPC)) 101 % of control; under setting [10], 100 % of control; under setting [11], 101 % of control.
